# Experimental data from paper PMC11901381 (Future Medicinal Chemistry, 2025).
# What was measured:
# General = format: cell-based; settings: African green monkey, Vero cells (monkey kidney epithelial cells)
# [1] = system: T. brucei brucei strain GUTat3.1; assay: Antitrypanosomal assay; format: cell-based, Trypanosoma brucei brucei; settings: for IC50: Trypanosoma brucei, read-out: Antitrypomastigote activity IC50 ± SD Tbb GuTat3.1
# [2] = Animal cytotoxicity, CCK-8 assay; format: cell-based, bovine; settings: bovine, MDBK (Madin-Darby bovine kidney) cells
# [3] = system: L. donovani strain 9515 promastigotes; assay: Antipromastigote resazurin assay; format: cell-based, Leishmania donovani; settings: for IC50: Leishmania donovani, read-out: Antipromastigote activity IC50; for AG (activity gain): IC50 (1)/IC50 (compd.), L. donovani promastigotes; for SI1: SI1 = IC50 Vero/IC50 promastigote, L. donovani
# [4] = system: L. major strain NIH S promastigotes; assay: Antipromastigote resazurin assay; format: cell-based, Leishmania major; settings: for IC50: Leishmania major, read-out: Antipromastigote activity IC50; for AG (activity gain): IC50 (1)/IC50 (compd.), L. major promastigotes; for SI4: SI4 = IC50 Vero/IC50 promastigote, L. major
# [5] = Host cell toxicity, resazurin assay; format: cell-based; settings: human
# [6] = system: L. major strain NIH S intramacrophage amastigotes; assay: Intramacrophage antileishmanial resazurin assay; format: cell-based, Leishmania major; settings: for SI5: SI5 = IC50 Vero/static IC50 amastigote; for SI5 / SI6 / SpI3 / SpI4: L. major; for SI6: SI6 = IC50 Vero/cidal IC50 amastigote; for SpI3: SpI3 = IC50 promastigote/static IC50 amastigote; for SpI4: SpI4 = IC50 promastigote/cidal IC50 amastigote; for Static anti-amastigote activity IC50: L. major NIH S amastigotes in THP-1 macrophages, 24 hours after lysis
# [7] = system: L. donovani strain 9515 intramacrophage amastigotes; assay: Intramacrophage antileishmanial resazurin assay; format: cell-based, Leishmania donovani; settings: for SI2: SI2 = IC50 Vero/static IC50 amastigote; for SI2 / SI3 / SpI1 / SpI2: L. donovani; for SI3: SI3 = IC50 Vero/cidal IC50 amastigote; for SpI1: SpI1 = IC50 promastigote/static IC50 amastigote; for SpI2: SpI2 = IC50 promastigote/cidal IC50 amastigote; for Static anti-amastigote activity IC50: L. donovani 9515 amastigotes in THP-1 macrophages, 24 hours after lysis
# [8] = system: T. congolense strain IL3000; assay: Antitrypanosomal assay; format: cell-based, Trypanosoma congolense; settings: IC50 of MDBK/IC50 of trypanosome
# [9] = Solubility observed during sample preparation and screening; format: physicochemical; settings: for Solubility in 100% DMSO: 100% dimethyl sulfoxide used for sample preparation
# [10] = system: T. brucei rhodesiense strain IL1501; assay: Antitrypanosomal assay; format: cell-based, Trypanosoma brucei rhodesiense; settings: IC50 of MDBK/IC50 of trypanosome
# [11] = system: T. brucei gambiense strain IL1922; assay: Antitrypanosomal assay; format: cell-based, Trypanosoma brucei gambiense; settings: IC50 of MDBK/IC50 of trypanosome
SMILES,IC50 (General),IC50 [1],IC50 [2],IC50 [3],IC50 [4],IC50 [5],SI5 [6],SI6 [6],SpI3 [6],SpI4 [6],other results
"O=Cc1c[nH]c2ccc([N+](=O)[O-])cc12 [2a, 5-Nitro-1H-indole-3-carbaldehyde]",> 100 µM,> 131 µM,> 526 µM,> 100 µM,> 100 µM,,,,,,
"C#CCn1cc(C=O)c2cc([N+](=O)[O-])ccc21 [2b, 5-Nitro-1-(prop-2-yn-1-yl)-1 H-indole-3-carbaldehyde]",> 100 µM,> 110 µM,> 438 µM,> 100 µM,> 100 µM,91.1 ± 12.6 µM,41,41,41,42,
"O=Cc1cn(Cc2ccccc2)c2ccc([N+](=O)[O-])cc12 [2c, 1-Benzyl-5-nitro-1 H-indole-3-carbaldehyde]",> 100 µM,> 89 µM,> 357 µM,,,> 100 µM,,,,,SI2 [7]: 28; SI3 [7]: 28; SpI1 [7]: 28; SpI2 [7]: 28
"Cc1ccc(Cn2cc(C=O)c3cc([N+](=O)[O-])ccc32)cc1 [2d, 1-(4-Methylbenzyl)-5-nitro-1 H-indole-3-carbaldehyde]",96.9 ± 5.35 µM,> 85 µM,,,,> 100 µM,,,,,AG (activity gain) [3]: 61; SI1 [3]: 117; AG (activity gain) [4]: 32.3; SI4 [4]: 68
"O=Cc1cn(Cc2cccc(Cl)c2)c2ccc([N+](=O)[O-])cc12 [2f, 1-(3-Chlorobenzyl)-5-nitro-1 H-indole-3-carbaldehyde]",99.91 ± 0.13 µM,> 79 µM,,,,> 100 µM,10,7,,1,AG (activity gain) [4]: 5.3; SI4 [4]: 11
"O=C1NC(=S)S/C1=C\c1cn(Cc2ccccc2)c2ccc([N+](=O)[O-])cc12 [3c, (Z)-5-[(1-Benzyl-5-nitro-1 H-indol-3-yl)methylene]-2-thioxothiazolidin-4-one]",18.8 ± 3.22 µM,> 73 µM,99.13 ± 0.96 µM,> 100 µM,> 100 µM,> 100 µM,35,37,189,196,SI Tc IL3000 [8]: 5; SI2 [7]: 6; SI3 [7]: 6; SpI1 [7]: 34; SpI2 [7]: 33
"Cc1ccc(Cn2cc(/C=C3\SC(=S)NC3=O)c3cc([N+](=O)[O-])ccc32)cc1 [3d, (Z)-5-{[1-(4-Methylbenzyl)-5-nitro-1 H-indol-3-yl]methylene}-2-thioxothiazolidin-4-one]",98.2 ± 1.62 µM,> 70 µM,,87.4 ± 17.8 µM,> 100 µM,> 100 µM,78,,79,107,SI2 [7]: 19; SI3 [7]: 17; SpI1 [7]: 17; SpI2 [7]: 15; AG (activity gain) [3]: 0.6; SI1 [3]: 1
"O=C1NC(=S)S/C1=C\c1cn(Cc2ccc(F)cc2)c2ccc([N+](=O)[O-])cc12 [3e, (Z)-5-{[1-(4-Fluorobenzyl)-5-nitro-1H -indol-3-yl]methylene}-2-thioxothiazolidin-4-one]",17.4 ± 1.33 µM,> 63 µM,17 ± 2.65 µM,> 100 µM,> 100 µM,,,,,,SI Tc IL3000 [8]: 7; Solubility in 100% DMSO [9]: poor solubility
"O=C1NC(=S)S/C1=C\c1cn(Cc2cccc(Cl)c2)c2ccc([N+](=O)[O-])cc12 [3f, (Z)-5-{[1-(3-Chlorobenzyl)-5-nitro-1 H-indol-3-yl]methylene}-2-thioxothiazolidin-4-one]",22.2 ± 1.65 µM,> 61 µM,,19.1 ± 3.7 µM,17.7 ± 0.9 µM,> 100 µM,5,8,4,7,SI2 [7]: 12; SI3 [7]: 11; SpI1 [7]: 10; SpI2 [7]: 10; Solubility in 100% DMSO [9]: poor solubility; AG (activity gain) [3]: 2.6; SI1 [3]: 1; AG (activity gain) [4]: 2.6; SI4 [4]: 1
"O=C1CSC(=S)N1/N=C/c1c[nH]c2ccc([N+](=O)[O-])cc12 [4a, (E)-3-{[(5-Nitro-1 H-indol-3-yl)methylene]amino}-2-thioxothiazolidin-4-one]",> 100 µM,> 61 µM,66.8 ± 9.55 µM,> 100 µM,> 100 µM,,,,,,
"C#CCn1cc(/C=N/N2C(=O)CSC2=S)c2cc([N+](=O)[O-])ccc21 [4b, (E)-3-({[5-Nitro-1-(prop-2-yn-1-yl)-1 H-indol-3-yl]methylene}amino)-2-thioxothiazolidin-4-one]",> 100 µM,> 59 µM,,> 100 µM,> 100 µM,> 100 µM,11,12,11,12,Solubility in aqueous screening medium [9]: poor solubility
"O=C1CSC(=S)N1/N=C/c1cn(Cc2ccccc2)c2ccc([N+](=O)[O-])cc12 [4c, (E)-3-{[(1-Benzyl-5-nitro-1 H-indol-3-yl)methylene]amino}-2-thioxothiazolidin-4-one]",> 100 µM,> 60 µM,,> 100 µM,> 100 µM,> 100 µM,38,41,38,41,
"Cc1ccc(Cn2cc(/C=N/N3C(=O)CSC3=S)c3cc([N+](=O)[O-])ccc32)cc1 [4d, (E)-3-({[1-(4-Methylbenzyl)-5-nitro-1H -indol-3-yl]methylene}amino)-2-thioxothiazolidin-4-one]",> 100 µM,> 58 µM,,> 100 µM,70.9 ± 14.3 µM,,,,,,Static anti-amastigote activity IC50 [7]: inactive; Solubility in aqueous screening medium [9]: poor solubility; Static anti-amastigote activity IC50 [6]: inactive; AG (activity gain) [4]: 0.7; SI4 [4]: 1
"O=C1CSC(=S)N1/N=C/c1cn(Cc2ccc(F)cc2)c2ccc([N+](=O)[O-])cc12 [4e, (E)-3-({[1-(4-Fluorobenzyl)-5-nitro-1 H-indol-3-yl]methylene}amino)-2-thioxothiazolidin-4-one]",> 100 µM,55.3 ± 4.84 µM,22.4 ± 5.37 µM,> 100 µM,> 100 µM,,,,,,SI Tbr IL1501 [10]: 0; SI Tbg IL1922 [11]: 0; SI Tbb GuTat3.1 ([1]; IC50 of MDBK/IC50 of trypanosome): 0; Solubility in aqueous screening medium [9]: poor solubility
"O=C1CSC(=S)N1/N=C/c1cn(Cc2cccc(Cl)c2)c2ccc([N+](=O)[O-])cc12 [4f, (E)-3-({[1-(3-Chlorobenzyl)-5-nitro-1 H-indol-3-yl]methylene}amino)-2-thioxothiazolidin-4-one]",58.8 ± 13.2 µM,> 56 µM,,> 100 µM,> 100 µM,,,,,,
"C[C@@H]1[C@H](O)[C@@H](C)/C=C/C=C/C=C/C=C/C=C/C=C/C=C/[C@H](O[C@@H]2O[C@H](C)[C@@H](O)[C@H](N)[C@@H]2O)C[C@@H]2O[C@](O)(C[C@@H](O)C[C@@H](O)[C@H](O)CC[C@@H](O)C[C@@H](O)CC(=O)O[C@H]1C)C[C@H](O)[C@H]2C(=O)O [AMB, amphotericin B, reference compound]",,,,0.02 ± 0.009 µM,,,,,0.1,0.2,SpI1 [7]: 0.40; SpI2 [7]: 0.04
"CC[C@H]1CN2CCc3cc(OC)c(OC)cc3[C@@H]2C[C@@H]1C[C@H]1NCCc2cc(OC)c(OC)cc21 [Em, emetine, reference compound]",0.09 ± 0.009 µM,,,,,,,,,,
"Cc1ccc(C(=O)Nc2ccc(S(=O)(=O)O)c3cc(S(=O)(=O)O)cc(S(=O)(=O)O)c23)cc1NC(=O)c1cccc(NC(=O)Nc2cccc(C(=O)Nc3cc(C(=O)Nc4ccc(S(=O)(=O)O)c5cc(S(=O)(=O)O)cc(S(=O)(=O)O)c45)ccc3C)c2)c1 [Suramin, suramin, reference compound]",,0.07 ± 0.02 µM,> 70 µM,,,,,,,,
"O=[N+]([O-])c1ccc2[nH]ccc2c1 [compound 1, 5-nitroindole]",79.5 ± 14.9 µM,> 154 µM,,50.3 ± 1.36 µM,45.8 ± 5.47 µM,> 100 µM,,,,,Static anti-amastigote activity IC50 [7]: inactive; Static anti-amastigote activity IC50 [6]: inactive; AG (activity gain) [3]: 1; SI1 [3]: 2; AG (activity gain) [4]: 1; SI4 [4]: 2
